The results in this text go back to PubChem BioAssay (NCI).

Some test systems named below: NCI-H226 lung; SF-268 CNS; OVCAR-4 ovarian; SF-295 CNS; 786-0 renal; RPMI-8226 leukemia; T-47D breast; MOLT-4 leukemia; OVCAR-5 ovarian; SK-MEL-5 melanoma.
What all share (assay): NCI-60 cell line screen, 48 h

SMILES strings stand for the structures.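 Where inhibition never reached the appropriate level, the endpoint shown equals the highest concentration tested. Otherwise, values were interpolated linearly from a five-concentration, 48-hour dose response in 96-well plates. The concentration for 50% growth inhibition is given as GI50. The concentration for full growth arrest is given as TGI.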

As for `COc1cc(N2CCC(N3CCN(C)CC3)CC2)ccc1Nc1ncc(Cl)c(Nc2ccccc2S(=O)(=O)C(C)C)n1`, the GI50 in the test with NCI-H226 lung is 0.461 µM; with SF-268 CNS, 0.813 µM; with OVCAR-4 ovarian, 0.341 µM; in the test with SF-295 CNS, 1.8 µM; with 786-0 renal, 1.12 µM; with RPMI-8226 leukemia it was 0.924 µM. Also, the GI50 is 1.59 µM in the test with T-47D breast, 0.809 µM in the test with MOLT-4 leukemia, 0.659 µM with OVCAR-5 ovarian and 1.37 µM in the test with SK-MEL-5 melanoma. Moreover, the TGI in the test on NCI-H226 lung is 2.14 µM; in the test with SF-268 CNS it was 2.44 µM; with OVCAR-4 ovarian it was 2.17 µM; in the test on SF-295 CNS, 10.3 µM; in the test with 786-0 renal, 2.44 µM; with RPMI-8226 leukemia, 6.46 µM. In addition, the TGI in the test with T-47D breast worked out at 3.55 µM; in the test on MOLT-4 leukemia it was 5.71 µM; in the test with OVCAR-5 ovarian, 5.48 µM; in the test on SK-MEL-5 melanoma it was 2.67 µM.

As to `O=S(=O)(Nc1ccccn1)c1ccc(N=Nc2ccc(O)c3ncccc23)cc1`, the GI50 in the test on NCI-H226 lung was 2.96 µM; with SF-268 CNS, 1.12 µM; in the test with OVCAR-4 ovarian, 2.33 µM; with SF-295 CNS, 2.14 µM; with 786-0 renal, 3.42 µM; in the test on RPMI-8226 leukemia it was 0.748 µM. Also, the GI50 in the test with T-47D breast is 2.98 µM; with MOLT-4 leukemia, 1.37 µM; in the test with OVCAR-5 ovarian, 3.53 µM; in the test on SK-MEL-5 melanoma, 0.683 µM. Besides, the TGI with NCI-H226 lung came to 10.8 µM; with SF-268 CNS, 50.7 µM; in the test with OVCAR-4 ovarian, 12.2 µM; in the test on SF-295 CNS it was 4.86 µM; in the test with 786-0 renal, 13.6 µM; in the test with RPMI-8226 leukemia it was 27.7 µM. In addition, the TGI with T-47D breast was 8.7 µM; with MOLT-4 leukemia it was greater than 23.9 µM; with OVCAR-5 ovarian, 18.7 µM; in the test with SK-MEL-5 melanoma, 1.63 µM.

Consider `Fc1cccc(-c2[nH]nc3nc(Nc4cccnc4)sc23)c1`, for which the GI50 in the test with NCI-H226 lung is greater than 100 µM; in the test with SF-268 CNS it was greater than 100 µM; in the test on OVCAR-4 ovarian, 16.1 µM; in the test with SF-295 CNS it was 3.82 µM; with 786-0 renal it was greater than 100 µM; in the test with RPMI-8226 leukemia it was 5.79 µM. For the same molecule, the GI50 was 8.69 µM in the test with T-47D breast, 9.13 µM with MOLT-4 leukemia, greater than 100 µM with OVCAR-5 ovarian and 0.593 µM with SK-MEL-5 melanoma. Further, the TGI in the test on NCI-H226 lung, with SF-268 CNS, in the test with OVCAR-4 ovarian, with SF-295 CNS, in the test with 786-0 renal and with RPMI-8226 leukemia was greater than 100 µM in each case. Further, the TGI in the test on T-47D breast was greater than 100 µM; with MOLT-4 leukemia, greater than 100 µM; in the test on OVCAR-5 ovarian, greater than 100 µM; in the test with SK-MEL-5 melanoma it was 23.9 µM.

On to `COC1=C(OC)[C@]2(OC)c3c(O)c(OC)c4c(c3O[C@@]23O[C@@H](c2ccccc2)CC=C3C1=O)[C@@H](O)C[C@H](c1ccccc1)O4`, for which the GI50 is 0.286 µM in the test on NCI-H226 lung; 0.311 µM with SF-268 CNS; 1.48 µM in the test with OVCAR-4 ovarian; 1.78 µM in the test on SF-295 CNS; 0.171 µM in the test with 786-0 renal; 0.0714 µM in the test on RPMI-8226 leukemia. Further, the GI50 in the test on T-47D breast was 0.224 µM; with MOLT-4 leukemia it was 0.0852 µM; in the test on OVCAR-5 ovarian, 1.64 µM; with SK-MEL-5 melanoma, 1.32 µM. The TGI in the test with NCI-H226 lung was 1.46 µM; in the test on SF-268 CNS, 1.35 µM; with OVCAR-4 ovarian it was 3.38 µM; with SF-295 CNS it was 3.57 µM; in the test on 786-0 renal it was 0.339 µM; in the test with RPMI-8226 leukemia, 0.597 µM. The TGI in the test with T-47D breast amounted to 0.621 µM; in the test with MOLT-4 leukemia, 0.354 µM; in the test on OVCAR-5 ovarian, 3.18 µM; in the test with SK-MEL-5 melanoma it was 2.6 µM.

As to `COc1cc(C)c(NC(=O)CN(C)C)cc1Nc1nc(Nc2cccc(F)c2C(N)=O)c2cc[nH]c2n1`, the GI50 in the test on NCI-H226 lung was 2.6 µM; in the test on SF-268 CNS, 1.27 µM; in the test on OVCAR-4 ovarian it was 2.92 µM; with SF-295 CNS it was 2.13 µM; in the test on 786-0 renal, 4.15 µM; in the test with RPMI-8226 leukemia, 2.23 µM. Further, the GI50 in the test on T-47D breast was 3.81 µM; in the test with MOLT-4 leukemia it was 1.09 µM; in the test on OVCAR-5 ovarian, 0.0336 µM; with SK-MEL-5 melanoma, 0.69 µM. Moreover, the TGI stood at 7.24 µM in the test on NCI-H226 lung; 5.47 µM with SF-268 CNS; 7.43 µM with OVCAR-4 ovarian; 11.1 µM in the test with SF-295 CNS; 8.76 µM in the test with 786-0 renal; 7.99 µM in the test on RPMI-8226 leukemia. For the same molecule, the TGI stood at 8.38 µM in the test on T-47D breast, 25 µM with MOLT-4 leukemia, 3.63 µM in the test on OVCAR-5 ovarian and 4.36 µM with SK-MEL-5 melanoma.

In the case of `Cc1c(-c2nnc(-c3cc(Cl)c(Cl)cc3Cl)o2)nnn1-c1ccnc2c(C(F)(F)F)cccc12`, the GI50 was 28.7 µM in the test with NCI-H226 lung; 25 µM in the test with SF-268 CNS; 23.9 µM with OVCAR-4 ovarian; 27.6 µM in the test with SF-295 CNS; 33.8 µM in the test on 786-0 renal; 19.9 µM in the test with RPMI-8226 leukemia. Besides, the GI50 in the test with T-47D breast was 21.7 µM; in the test on MOLT-4 leukemia, 36.9 µM; in the test on OVCAR-5 ovarian it was 32.1 µM; in the test with SK-MEL-5 melanoma it was 17.3 µM. Besides, the TGI in the test with NCI-H226 lung is 91.7 µM; in the test on SF-268 CNS, 62.2 µM; with OVCAR-4 ovarian, 65.8 µM; in the test with SF-295 CNS it was 76.2 µM; in the test on 786-0 renal, greater than 100 µM; in the test with RPMI-8226 leukemia, 54.1 µM. The TGI with T-47D breast is 77.4 µM; with MOLT-4 leukemia, greater than 100 µM; in the test on OVCAR-5 ovarian it was 94.2 µM; in the test on SK-MEL-5 melanoma, 32.5 µM.
